pIC50: −log10 of the molar value. Calls of active or inactive are those of the source. No cut-off for these calls is given here.
Key:
[1] = molecular target: T1, Transcriptional activator protein LuxR (Aliivibrio fischeri) (UniProt P12746); assay: Agonist activity at Vibrio fischeri LuxR expressed in Escherichia coli NM522 containing Photorhabdus luminescens LuxCDABE assessed as induction of quorum sensing activation mediated bioluminescence at 0.1 to 200 uM after 4 to 5 hrs by bioluminescence assay; format: functional
T1 sequence (whole entry): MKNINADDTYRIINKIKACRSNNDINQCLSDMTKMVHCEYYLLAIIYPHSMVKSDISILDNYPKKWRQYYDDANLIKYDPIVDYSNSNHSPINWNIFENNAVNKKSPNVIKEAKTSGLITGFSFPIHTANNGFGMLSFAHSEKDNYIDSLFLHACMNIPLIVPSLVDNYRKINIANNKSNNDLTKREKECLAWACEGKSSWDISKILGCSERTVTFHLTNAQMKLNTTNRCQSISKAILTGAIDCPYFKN

[2] = molecular target: T2, Transcriptional activator protein LuxR (Aliivibrio fischeri, UniProt P12746); assay: Antagonist activity at Vibrio fischeri LuxR expressed in Escherichia coli NM522 containing Photorhabdus luminescens LuxCDABE assessed as inhibition of 3-oxo-C6-HSL-induced quorum sensing activation mediated bioluminescence after 4 to 5 hrs by bioluminescence assay; format: functional
T2 sequence (P12746 whole entry): T1 sequence (whole entry)

Activity [1]	pIC50 [2]	SMILES
–	4.04	CCCCCNC(=O)C1CCCC1O (stereo not drawn)
inactive	4.27	CCCCCCNC(=O)C1CCOC1=O (stereo not drawn)
inactive	4.11	CCCCCCCCNC(=O)C1CCCC1=O (stereo not drawn)
inactive	–	CCCCCNC(=O)C1CCCC1O (mixture of isomers) [listing 1 of 2 here]
–	3.70	CCCCCNC(=O)C1CCCC1O (mixture of isomers) [listing 2 of 2 here]
inactive	4.12	CCCCCCCCCCNC(=O)C1CCOC1=O (stereo not drawn)

Second part, the compound before the results:

SMILES	Activity [1]	pIC50 [2]
CCCCCCN(C)C(=O)C1CCOC1=O (stereo not drawn)	inactive	–
CCCCCNC(=O)C1CCOC1=O (stereo not drawn)	inactive	4.47
CCCCCNS(=O)(=O)C1CCOC1=O (stereo not drawn)	inactive	4.15
CCCCCCCCNC(=O)C1CCOC1=O (stereo not drawn)	inactive	4.28
CCCCNS(=O)(=O)C1CCOC1=O (stereo not drawn)	inactive	< 3.70
CCCCN(C)C(=O)C1CCOC1=O (stereo not drawn)	inactive	–
CCCCNC(=O)C1CCOC1=O (stereo not drawn)	inactive	4.02
CCCCCNC(=O)C1CCCC1=O (stereo not drawn)	inactive	4.40
